Source: patent US20220259202A1, “1-(4-(AMINOMETHYL)BENZYL)-2-BUTYL-2H-PYRAZOLO[3,4-C]QUINOLIN-4-AMINE DERIVATIVES AND RELATED COMPOUNDS AS TOLL-LIKE RECEPTOR (TLR) 7/8 AGONISTS, AS WELL AS ANTIBODY DRUG CONJUGATES THEREOF FOR USE IN CANCER THERAPY AND DIAGNOSIS” (SUTRO BIOPHARMA, INC., priority 2019, published 2022)
pEC50: −log10 of the molar value.

Tests used:
Experiment in all cases: HEK293 SEAP reporter assay, other TLRs (Biological Example 3)
Assay type in all cases: cell-based
Conditions in all cases: 16 hrs, up to 1 μM
[1] = molecular target: T1, human TLR9 (Homo sapiens, UniProt Q9NR96)
T1 construct: host or cells: HEK293
T1 sequence (Q9NR96 26-1032): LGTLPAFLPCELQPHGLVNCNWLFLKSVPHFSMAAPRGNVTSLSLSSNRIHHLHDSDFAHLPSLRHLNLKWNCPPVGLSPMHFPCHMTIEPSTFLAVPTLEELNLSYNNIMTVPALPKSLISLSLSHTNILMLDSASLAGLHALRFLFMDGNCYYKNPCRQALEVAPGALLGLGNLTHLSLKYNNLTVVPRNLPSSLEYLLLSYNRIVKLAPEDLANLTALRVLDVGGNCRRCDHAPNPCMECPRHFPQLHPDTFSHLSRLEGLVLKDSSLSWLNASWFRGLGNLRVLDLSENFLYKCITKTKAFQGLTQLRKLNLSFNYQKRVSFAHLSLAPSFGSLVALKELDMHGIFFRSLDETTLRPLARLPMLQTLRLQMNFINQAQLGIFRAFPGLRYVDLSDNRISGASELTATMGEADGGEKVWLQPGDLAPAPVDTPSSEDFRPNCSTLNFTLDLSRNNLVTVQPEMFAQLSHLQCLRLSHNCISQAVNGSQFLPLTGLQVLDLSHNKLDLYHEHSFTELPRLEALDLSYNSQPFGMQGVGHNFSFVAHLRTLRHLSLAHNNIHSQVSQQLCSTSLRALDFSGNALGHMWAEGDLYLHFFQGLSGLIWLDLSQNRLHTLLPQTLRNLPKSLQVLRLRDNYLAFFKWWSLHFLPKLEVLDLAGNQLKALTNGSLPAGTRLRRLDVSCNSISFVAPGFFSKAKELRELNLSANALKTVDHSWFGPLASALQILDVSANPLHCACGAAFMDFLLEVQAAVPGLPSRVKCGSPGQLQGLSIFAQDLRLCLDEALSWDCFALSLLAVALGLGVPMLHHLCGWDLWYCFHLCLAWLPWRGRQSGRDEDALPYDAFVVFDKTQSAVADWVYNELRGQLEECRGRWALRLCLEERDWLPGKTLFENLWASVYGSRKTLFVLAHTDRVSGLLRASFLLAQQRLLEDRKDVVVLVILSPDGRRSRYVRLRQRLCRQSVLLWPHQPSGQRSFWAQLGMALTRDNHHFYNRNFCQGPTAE
Description: (§1) In this example, the activity of the Compound 1 to stimulate different human and mouse TLR pathways was investigated on HEK293 cells transfected with inducible SEAP (secreted embryonic alkaline phosphatase) reporter genes and also expressing different human TLRs (TLR2, TLR3, TLR4, TLR5, TLR7, TLR8, TLRS) or mouse TLRs (TLR2, TLR3, TLR4, TLR5, TLR7, TLR8, TLR13). Compound A
(§2) HEK293 reporter cell lines were purchased from Invivogen and cell lines were maintained in manufacture recommended culture medium with required supplemental antibiotics. On the day of assay, the cells were harvested with Accutase and counted by the Vi-CELL Cell Viability Analyzers. Cells were re-suspended in HEK blue detection medium and a total of 10000 cells were seeded in each well of a 384-well flat bottom plate. […] Assay plates were cultured at 37° C. in a CO2 incubator for 16 hrs. HEK-Blue™ Detection medium changes to a purple/blue color in the presence of secreted SEAP, which can be detected by spectrophotometry at 620-655 nm. Data was fitted with non-linear regression analysis, using a log(inhibitor) vs. response-variable slope, 3-parameter fit with GraphPad Prism.

[2] = molecular target: T2, mouse TLR4 (Mus musculus, UniProt Q9JHF9+Q9QUK6)
T2 construct: host or cells: HEK293
T2 sequence (Q9QUK6 26-835): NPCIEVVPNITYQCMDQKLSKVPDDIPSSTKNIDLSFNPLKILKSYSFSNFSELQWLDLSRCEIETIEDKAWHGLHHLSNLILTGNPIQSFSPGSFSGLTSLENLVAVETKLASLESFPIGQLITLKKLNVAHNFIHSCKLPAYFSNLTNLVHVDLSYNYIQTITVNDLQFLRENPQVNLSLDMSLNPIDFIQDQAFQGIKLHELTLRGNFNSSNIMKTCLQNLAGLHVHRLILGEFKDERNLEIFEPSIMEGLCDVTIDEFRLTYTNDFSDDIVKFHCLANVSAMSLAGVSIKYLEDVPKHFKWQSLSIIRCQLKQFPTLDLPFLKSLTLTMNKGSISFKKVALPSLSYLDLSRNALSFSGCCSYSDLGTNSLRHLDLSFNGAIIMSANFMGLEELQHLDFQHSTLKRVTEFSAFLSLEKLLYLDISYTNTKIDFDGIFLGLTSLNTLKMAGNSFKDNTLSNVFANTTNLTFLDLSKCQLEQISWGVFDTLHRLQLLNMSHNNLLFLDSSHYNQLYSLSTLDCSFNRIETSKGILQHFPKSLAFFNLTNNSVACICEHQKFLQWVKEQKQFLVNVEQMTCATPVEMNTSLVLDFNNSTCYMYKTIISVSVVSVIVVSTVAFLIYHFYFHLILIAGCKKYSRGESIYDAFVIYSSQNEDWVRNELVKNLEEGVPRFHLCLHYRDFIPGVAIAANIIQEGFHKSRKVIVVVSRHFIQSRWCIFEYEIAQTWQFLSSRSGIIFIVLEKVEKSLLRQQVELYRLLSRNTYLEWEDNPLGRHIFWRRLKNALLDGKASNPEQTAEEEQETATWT
T2 sequence (Q9JHF9 19-160): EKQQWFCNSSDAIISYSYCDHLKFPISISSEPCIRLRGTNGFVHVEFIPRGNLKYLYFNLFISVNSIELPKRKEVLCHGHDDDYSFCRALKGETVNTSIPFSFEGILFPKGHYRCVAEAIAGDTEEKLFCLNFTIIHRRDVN
Description: as §1, §2

[3] = molecular target: T3, mouse TLR5 (Mus musculus, UniProt Q9JLF7)
T3 construct: host or cells: HEK293
Description: as §1, §2

Measured: pEC50

T3 sequence (Q9JLF7 27-859): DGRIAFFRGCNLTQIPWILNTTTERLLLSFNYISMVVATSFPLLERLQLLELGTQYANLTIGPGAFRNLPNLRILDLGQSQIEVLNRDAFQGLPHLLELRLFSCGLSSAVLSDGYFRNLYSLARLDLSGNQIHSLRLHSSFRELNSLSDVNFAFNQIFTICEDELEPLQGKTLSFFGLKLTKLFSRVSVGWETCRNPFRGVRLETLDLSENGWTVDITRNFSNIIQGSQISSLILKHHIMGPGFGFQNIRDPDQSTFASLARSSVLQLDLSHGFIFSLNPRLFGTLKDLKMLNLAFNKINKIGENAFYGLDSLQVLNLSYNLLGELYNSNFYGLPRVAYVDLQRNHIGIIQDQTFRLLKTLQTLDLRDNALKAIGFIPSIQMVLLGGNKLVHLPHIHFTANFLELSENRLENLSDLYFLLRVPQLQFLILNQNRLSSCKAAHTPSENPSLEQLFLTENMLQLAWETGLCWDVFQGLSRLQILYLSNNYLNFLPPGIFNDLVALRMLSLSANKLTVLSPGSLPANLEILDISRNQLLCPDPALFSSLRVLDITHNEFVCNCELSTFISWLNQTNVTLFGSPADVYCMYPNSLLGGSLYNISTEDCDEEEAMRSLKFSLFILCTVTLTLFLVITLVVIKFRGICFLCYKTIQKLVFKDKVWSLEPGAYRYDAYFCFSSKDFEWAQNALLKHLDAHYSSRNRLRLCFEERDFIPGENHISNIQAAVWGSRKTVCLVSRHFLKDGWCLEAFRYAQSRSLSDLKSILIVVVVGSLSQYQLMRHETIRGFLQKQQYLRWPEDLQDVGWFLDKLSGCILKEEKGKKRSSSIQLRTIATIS

CCCCn1nc2c(N)nc3ccccc3c2c1Cc1ccc(CN)cc1 [Compound 1, 1-(4-(aminomethyl)benzyl)-2-butyl-2H-pyrazolo[3,4-c]quinolin-4-amine]
< 6.00: all assays above

CCCCc1nc2c(N)nc3ccccc3c2n1Cc1ccc(CN)cc1 [Compound A, reference compound]
< 6.00: all assays above
